Results reported in US4349672A, “Cephalosporin derivatives” (Hoffmann-La Roche Inc., priority 1979, dated 1982).
Structures can show the parent of a compound that is named as a salt.

Legend:
Assay in all cases: Activity in vitro: minimum inhibitory concentration
Assay type in all cases: cell-based
Enterobacter cloacae = tested on: Enterobacter cloacae
Excerpt: (§1) Activity in vitro: Minimum inhibitory concentration (μg/ml)

Proteus inconstans = conditions: Providencia alcalifaciens, gram negative
Excerpt: as §1

Escherichia coli = tested on: Escherichia coli
Excerpt: as §1

Klebsiella pneumoniae = tested on: Klebsiella pneumoniae
Excerpt: as §1

Serratia marcescens = tested on: Serratia marcescens
Excerpt: as §1

Citrobacter freundii = tested on: Citrobacter freundii
Excerpt: as §1

Proteus rettgeri = conditions: Providencia rettgeri, gram negative
Excerpt: as §1

Proteus vulgaris = tested on: Proteus vulgaris
Excerpt: as §1

Streptococcus pyogenes = conditions: gram positive
Excerpt: as §1

Proteus mirabilis = tested on: Proteus mirabilis
Excerpt: as §1

Acinetobacter anitratus = conditions: Acinetobacter calcoaceticus, gram negative
Excerpt: as §1

Enterobacter aerogenes = conditions: Klebsiella aerogenes
Excerpt: as §1

[1] = Enterobacter cloacae Strain 1, gram negative
[2] = Enterobacter cloacae Strain 2, gram negative
[3] = Escherichia coli Strain 1, gram negative
[4] = Escherichia coli Strain 2, gram negative
[5] = Escherichia coli Strain 3, gram negative
[6] = Escherichia coli Strain 4, gram negative
[7] = Klebsiella pneumoniae Strain 1, gram negative
[8] = Klebsiella pneumoniae Strain 2, gram negative
[9] = Klebsiella pneumoniae Strain 3, gram negative
[10] = Serratia marcescens Strain 1, gram negative
[11] = Serratia marcescens Strain 2, gram negative
[12] = Citrobacter freundii Strain 1, gram negative
[13] = Citrobacter freundii Strain 2, gram negative
[14] = Proteus vulgaris Strain 1, gram negative
[15] = Proteus vulgaris Strain 2, gram negative
[16] = Proteus vulgaris Strain 3, gram negative
[17] = Proteus mirabilis Strain 1, gram negative
[18] = Proteus mirabilis Strain 2, gram negative
[19] = Enterobacter aerogenes Strain 1, gram negative
[20] = Enterobacter aerogenes Strain 2, gram negative

SMILES	MIC (Enterobacter cloacae; [1])	MIC (Enterobacter cloacae; [2])	MIC (Proteus inconstans)	MIC (Escherichia coli; [3])	MIC (Escherichia coli; [4])	MIC (Escherichia coli; [5])	MIC (Escherichia coli; [6])	MIC (Klebsiella pneumoniae; [7])	MIC (Klebsiella pneumoniae; [8])	MIC (Klebsiella pneumoniae; [9])	MIC (Serratia marcescens; [10])	MIC (Serratia marcescens; [11])	MIC (Citrobacter freundii; [12])	MIC (Citrobacter freundii; [13])	MIC (Proteus rettgeri)	MIC (Proteus vulgaris; [14])	MIC (Proteus vulgaris; [15])	MIC (Proteus vulgaris; [16])	MIC (Streptococcus pyogenes)	MIC (Proteus mirabilis; [17])	also measured
CO/N=C(\C(=O)N[C@@H]1C(=O)N2C(C(=O)O)=C(CSc3nc(=O)c(O)nn3C)C[S@+]([O-])[C@H]12)c1csc(N)n1 [Derivative A, disodium salt of (6R,7R)-7-[2-(2-amino-4-thiazolyl)-2-[(Z)-methoxyimino]acetamido]-3-[[(2,5-dihydro-6-hydroxy-2-methyl-5-oxo-as-triazin-3-yl)thio]methyl]-8-oxo-5-thia-1-azabicyclo[4.2.0]oct-2-ene-2-carboxylic acid 5-(s)-oxide]	3.1 µg/mL	0.19 µg/mL	≤ 0.006 µg/mL	0.025 µg/mL	0.19 µg/mL	0.1 µg/mL	0.1 µg/mL	0.1 µg/mL	0.025 µg/mL	0.1 µg/mL	0.39 µg/mL	0.19 µg/mL	0.19 µg/mL	0.05 µg/mL	≤ 0.006 µg/mL	0.1 µg/mL	0.1 µg/mL	0.05 µg/mL	1.6 µg/mL	0.025 µg/mL	MIC (Proteus mirabilis; [18]): 0.39 µg/mL; MIC (Acinetobacter anitratus): 25 µg/mL; MIC (Enterobacter aerogenes; [19]): 0.19 µg/mL; MIC (Enterobacter aerogenes; [20]): 0.1 µg/mL
CO/N=C(\C(=O)N[C@@H]1C(=O)N2C(C(=O)O)=C(CSc3nc(=O)c(O)nn3C)CS(=O)(=O)[C@H]12)c1csc(N)n1 [Derivative B, disodium salt of (6R,7R)-7-[2-(2-amino-4-thiazolyl)-2-[(Z)-methoxyimino]acetamido]-3-[[(2,5-dihydro-6-hydroxy-2-methyl-5-oxo-as-triazin-3-yl)thio]methyl]-8-oxo-5-thia-1-azabicyclo[4.2.0]oct-2-ene-2-carboxylic acid 5,5-dioxide]	6.3 µg/mL	0.39 µg/mL	0.025 µg/mL	0.05 µg/mL	0.39 µg/mL	0.19 µg/mL	0.39 µg/mL	0.39 µg/mL	0.19 µg/mL	0.19 µg/mL	1.6 µg/mL	0.78 µg/mL	0.19 µg/mL	0.19 µg/mL	0.05 µg/mL	0.39 µg/mL	0.19 µg/mL	0.19 µg/mL	3.1 µg/mL	0.1 µg/mL	MIC (Proteus mirabilis; [18]): 0.78 µg/mL; MIC (Acinetobacter anitratus): 100 µg/mL; MIC (Enterobacter aerogenes; [19]): 0.39 µg/mL; MIC (Enterobacter aerogenes; [20]): 0.1 µg/mL
